Results on one molecule are retold here after patent US8349854B2, “Salts of 4-aniline quinazoline derivative” (priority 2007, dated 2013).

SMILES strings stand for the structures. Read-outs that look alike come from different tables or passages of the source.

A short description of series [1]: Solubility test in water and in methanol at room temperature. It counts as physicochemical. As to conditions: thermodynamic from solid. How it is done:
According to the conventional method for determining the solubility, at the room temperature, a suitable amount of the compound to be tested was placed in 15 mL of water. Then the compound was dissolved by sufficient stir. The solution is placed at room temperature for 3 hours. Then 10 ml of the clear saturated supernatant was transferred into the weighing bottle with the pipette. The solvent was evaporated by heating, and the residue was dried and weighed to obtain the mass of the residue, which was the mass of the solute. After calculation, the solubility of the compound of formula (I) and the salts thereof in water can be obtained. The solubility of the compound to be tested in methanol was determined along the same lines.

A short description of series [2]: Drug absorption in SD rat, intragastric administration (ig). It counts as in vivo. The note with it: male, plasma, po. How it is done:
The blood samples were collected 0.5, 1.0, 1.5, 2.0, 3.0, 5.0, 7.0, 9.0, 12 and 24 hours after administration, which were then centrifugated respectively to obtain the plasma. The concentration of the drug in the plasma was determined by means of liquid chromatography/tandem mass spectrometer, and the concentration-time curve was obtained.

The next series concerns the target Erb-B2 (Homo sapiens, UniProt P04626). As to conditions: in vitro; from PCT/CN2006/002786, result in words; cited from earlier work.
Series [3] deals with human epidermoid squamous cancer cells A431. As to conditions: from PCT/CN2006/002786, result in words; cited from earlier work.
Series [4] concerns human mammary cancer cells BT-474. The note with it: from PCT/CN2006/002786, result in words; cited from earlier work.
The test system of series [5] is human epidermoid squamous cancer cells A431. The note with it: from PCT/CN2006/002786, result in words; cited from earlier work. The source holds these as a separate data set.

Sequence of Erb-B2 (P04626 23-1255, species assumed): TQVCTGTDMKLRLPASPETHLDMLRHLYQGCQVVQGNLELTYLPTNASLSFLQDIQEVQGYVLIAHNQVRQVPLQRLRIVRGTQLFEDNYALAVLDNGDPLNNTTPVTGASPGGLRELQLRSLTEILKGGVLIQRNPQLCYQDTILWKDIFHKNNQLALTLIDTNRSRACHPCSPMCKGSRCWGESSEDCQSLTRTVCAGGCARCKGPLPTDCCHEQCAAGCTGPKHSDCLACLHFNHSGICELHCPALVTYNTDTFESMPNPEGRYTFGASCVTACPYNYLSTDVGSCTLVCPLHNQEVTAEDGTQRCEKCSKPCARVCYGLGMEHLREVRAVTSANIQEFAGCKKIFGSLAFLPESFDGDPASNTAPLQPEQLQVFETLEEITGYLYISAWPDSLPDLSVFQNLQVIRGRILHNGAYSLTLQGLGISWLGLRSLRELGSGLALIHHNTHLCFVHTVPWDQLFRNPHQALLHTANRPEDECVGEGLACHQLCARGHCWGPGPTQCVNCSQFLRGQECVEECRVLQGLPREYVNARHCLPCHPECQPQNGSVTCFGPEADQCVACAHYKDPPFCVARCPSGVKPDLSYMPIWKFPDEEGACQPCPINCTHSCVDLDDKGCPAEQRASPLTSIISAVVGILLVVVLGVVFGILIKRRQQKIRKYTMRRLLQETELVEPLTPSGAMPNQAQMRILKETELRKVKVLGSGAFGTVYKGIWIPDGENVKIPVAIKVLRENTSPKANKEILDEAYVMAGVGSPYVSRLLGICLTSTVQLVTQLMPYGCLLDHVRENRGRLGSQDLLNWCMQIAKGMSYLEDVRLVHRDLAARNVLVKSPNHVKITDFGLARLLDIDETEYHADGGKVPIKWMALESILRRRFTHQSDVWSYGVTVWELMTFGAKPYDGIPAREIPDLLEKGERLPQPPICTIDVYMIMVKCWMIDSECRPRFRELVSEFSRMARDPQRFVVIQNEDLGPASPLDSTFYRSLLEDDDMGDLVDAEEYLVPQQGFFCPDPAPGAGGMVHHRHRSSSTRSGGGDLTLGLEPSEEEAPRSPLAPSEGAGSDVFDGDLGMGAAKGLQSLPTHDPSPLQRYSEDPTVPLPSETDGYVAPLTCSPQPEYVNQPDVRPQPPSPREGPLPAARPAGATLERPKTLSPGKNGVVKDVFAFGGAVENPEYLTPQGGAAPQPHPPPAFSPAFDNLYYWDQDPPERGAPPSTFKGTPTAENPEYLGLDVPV

Turning to `C=CC(=O)Nc1ccc2ncnc(Nc3ccc(OCc4cccc(F)c4)c(Cl)c3)c2c1` [Compound of formula (I), N-{4-[3-chloro-4-(3-fluoro-benzyloxy)phenylamino]quinazolin-6-yl}-acrylamide], the solubility at 3 h is under 1000 µg/mL in series [1] (organic solvent or mixture, methanol, read-out: Solubility in methanol(/mL)) and under 0.01 µg/mL in series [1] (water, read-out: Solubility in water(/mL)). The molecule also gave a half-life in series [2] (SD, rat, 30 mg/kg) of 1.81 h. Moreover, the AUC0-t in series [2] (SD, rat, 30 mg/kg, read-out: AUC0-t) was found to be 106 ng·h/mL. Further, the Cmax in series [2] (SD, rat, 30 mg/kg, read-out: Cmax) was 32 ng/mL. In series [2] (SD, rat, 30 mg/kg, read-out: Tmax), the Tmax was 0.75 h. The bioavailability in series [2] (21.68 mg/kg, SD rat, revised by dosage, calculated by AUC0-t, read-out: absolute bioavailability by ig) was 0.95%. Besides, the “inhibitory activity against Erb-B2” value at Erb-B2 is reported as “excellent inhibitory activity”. The “inhibitory activity of human epidermoid squamous cancer cells A431” value in series [3] is “relatively good inhibitory activity”. Further, the “inhibitory activity of human mammary cancer cells BT-474” value in series [4] was “relatively good inhibitory activity”. The “anti-tumor effect on A431 transplanted to a nude rat” value in series [5] is “conspicuous anti-tumor effect”.
